This passage reports MIC results from DBAASP.

As usually defined, the MIC is the lowest concentration found to suppress growth. The low end stands for greater potency, the high end for weaker potency.

In brackets after ≈: the same amount, converted by molar mass. Several values for one entry are separate records, joined by “and”; a condition that tells them apart may be missing. Equal values may be shown once. A value given as a limit tells only on which side of the number the result lay.

Test systems include Bacillus subtilis 168 HT; Escherichia coli MG1655; Escherichia coli UB1005; Streptococcus agalactiae; Staphylococcus aureus.
Common to all, as to experiment: ≥ marks a high value that may be exact or a test limit, other limits are often not marked, values filed in µg/mL are converted to µM
The subject of experiment [1] is Burkholderia thailandensis.
For experiment [2], the system named is Bacillus subtilis ATCC 9372.
In experiment [3] the test system is Bacillus anthracis Sterne 34F2.
For experiment [4], the system named is Salmonella enterica subsp. enterica serovar Choleraesuis CVCC 503.
For experiment [5], the system named is Salmonella enterica subsp. enterica serovar Typhimurium ATCC 14028.
Experiment [6] concerns Salmonella enterica subsp. enterica serovar Typhimurium C77-31.
The test system of experiment [7] is Staphylococcus aureus ATCC 29213.
Experiment [8] deals with Salmonella enterica subsp. enterica serovar Pullorum C79-13.
Experiment [9] has as its system Staphylococcus epidermidis ATCC 12228.
Experiment [10] has as its system Enterococcus faecalis ATCC 29212.
In experiment [11] the test system is Staphylococcus aureus ATCC 43300.
Experiment [12] concerns Escherichia coli ATCC 25922.
Experiment [13] has as its system Pseudomonas aeruginosa ATCC 27853.
The test system of experiment [14] is Staphylococcus aureus ATCC 700699.
For experiment [15], the system named is Staphylococcus aureus ATCC 33591.
Experiment [16] has as its system Klebsiella pneumoniae ATCC 700603.

Consider `CC(C)[C@H](NC(=O)[C@H](CCC(N)=O)NC(=O)[C@H](CS)NC(=O)[C@H](C)NC(=O)[C@H](CCCCN)NC(=O)[C@H](CCCN=C(N)N)NC(=O)[C@H](CC(N)=O)NC(=O)[C@H](CCCCN)NC(=O)[C@H](CCCCN)NC(=O)[C@H](Cc1c[nH]c2ccccc12)NC(=O)[C@@H](NC(=O)[C@H](CCCCN)NC(=O)CNC(=O)[C@@H](N)CC(N)=O)[C@@H](C)O)C(=O)N[C@@H](CCCCN)C(=O)O` [NGKTWKKNRKACQVK], for which the MIC in the experiment on Bacillus subtilis 168 HT and in the experiment on Escherichia coli MG1655 was no less than 71.5 µM throughout.

As for `CC[C@H](C)[C@H](NC(=O)CNC(=O)[C@@H](NC(=O)[C@H](CCCCN)NC(=O)[C@H](CCCCN)NC(=O)CNC(=O)[C@@H](NC(=O)[C@H](CCCCN)NC(=O)[C@H](Cc1c[nH]c2ccccc12)NC(=O)[C@H](CCCCN)NC(=O)[C@H](CCSC)NC(C)=O)[C@@H](C)CC)[C@@H](C)CC)C(=O)NCC(=O)N[C@@H](CCCCN)C(=O)N[C@@H](Cc1ccccc1)C(=O)N[C@@H](CC(C)C)C(=O)N[C@@H](Cc1cnc[nH]1)C(=O)N[C@@H](CO)C(=O)N[C@@H](C)C(=O)N[C@@H](CCCCN)C(=O)N[C@@H](CCCCN)C(=O)N[C@@H](Cc1ccccc1)C(=O)N[C@@H](CC(N)=O)C(N)=O` [MKWKIGKKIGIGKFLHSAKKFN], the results for the MIC in experiment [1], in experiment [2] and in experiment [3] were no less than 50 µM, no less than 100 µM and no less than 100 µM, respectively.

As to `CSCC[C@H](NC(=O)[C@H](CCCCN)NC(=O)[C@H](CCCCN)NC(=O)[C@H](CC(C)C)NC(=O)[C@H](CC(C)C)NC(=O)[C@H](CCCN=C(N)N)NC(=O)[C@H](CCCN=C(N)N)NC(=O)[C@H](CCCCN)NC(=O)[C@H](C)N)C(=O)N[C@@H](CCCCN)C(=O)O` [AKRRLLKKMK], the MIC in the experiment with Bacillus subtilis 168 HT and against Escherichia coli MG1655 was no less than 101 µM each time.

Consider `CSCC[C@H](NC(=O)[C@H](Cc1ccccc1)NC(=O)CNC(=O)CNC(=O)[C@H](Cc1ccc(O)cc1)NC(=O)[C@H](CCCN=C(N)N)NC(=O)[C@H](CCCCN)NC(=O)[C@H](CCC(=O)O)NC(=O)[C@H](CCSC)NC(=O)[C@H](CCC(=O)O)NC(=O)[C@@H]1CCCN1C(=O)[C@@H]1CCCN1C(=O)[C@H](CCC(=O)O)NC(=O)[C@H](CCCCN)NC(=O)[C@H](CO)NC(=O)[C@H](Cc1ccc(O)cc1)NC(=O)[C@H](CO)NC(=O)[C@H](CCC(=O)O)NC(=O)CNC(=O)[C@H](CCC(=O)O)NC(=O)[C@H](CCC(=O)O)NC(=O)[C@H](CCC(=O)O)NC(=O)[C@H](CO)NC(=O)[C@@H]1CCCN1C(=O)[C@H](CC(C)C)NC(=O)[C@@H]1CCCN1C(=O)[C@H](CCC(=O)O)NC(=O)[C@H](C)NC(=O)[C@H](Cc1ccccc1)NC(C)=O)C(N)=O` [FAEPLPSEEEGESYSKEPPEMEKRYGGFM], for which the figures for the minimum inhibitory concentration (MIC) in [1], in experiment [2] and in experiment [3] were no less than 50 µM, no less than 100 µM and no less than 100 µM, respectively.

Turning to `CC(C)C[C@H](NC(=O)[C@H](Cc1ccccc1)NC(=O)[C@H](CS)NC(=O)[C@@H](NC(=O)[C@H](CC(C)C)NC(=O)[C@H](CCCN=C(N)N)NC(=O)[C@H](Cc1c[nH]c2ccccc12)NC(=O)[C@@H](N)CCCN=C(N)N)C(C)C)C(=O)N[C@@H](CS)C(=O)N[C@@H](CCCN=C(N)N)C(=O)N[C@@H](CCCN=C(N)N)C(=O)N[C@@H](CCCCN)C(=O)N[C@@H](CCCCN)C(=O)N[C@H](C(=O)O)C(C)C` [RWRLVCFLCRRKKV], the figures for the minimal inhibitory concentration (MIC) in the experiment with Bacillus subtilis 168 HT and in the experiment with Escherichia coli MG1655 were 8.6 µM (≈ 16 µg/mL) and 17.2 µM (≈ 32.1 µg/mL), respectively.

Regarding `CC[C@H](C)[C@H](N)C(=O)N[C@H](C(=O)N[C@@H](CS)C(=O)N[C@@H](CCCN=C(N)N)C(=O)N[C@@H](CCCCN)C(=O)N1CCC[C@H]1C(=O)N[C@H](C(=O)N[C@H](C(=O)N[C@@H](CS)C(=O)N[C@@H](CCCN=C(N)N)C(=O)N[C@@H](CCCCN)C(=O)N1CCC[C@H]1C(=O)N[C@H](C(=O)N[C@H](C(=O)N[C@@H](CS)C(=O)N[C@@H](CCCN=C(N)N)C(=O)N[C@@H](CCCCN)C(=O)N1CCC[C@H]1C(=O)N[C@H](C(=O)N[C@H](C(=O)N[C@@H](CS)C(=O)N[C@@H](CCCN=C(N)N)C(=O)N[C@@H](CCCCN)C(=O)N1CCC[C@H]1C(=O)N[C@H](C(=O)N[C@H](C(N)=O)[C@@H](C)CC)[C@@H](C)CC)[C@@H](C)CC)[C@@H](C)CC)[C@@H](C)CC)[C@@H](C)CC)[C@@H](C)CC)[C@@H](C)CC)[C@@H](C)CC` [IICRKPIICRKPIICRKPIICRKPII], the minimum inhibitory concentration (MIC) is 4 µM (≈ 12.3 µg/mL) in experiment [4]; 2 µM (≈ 6.17 µg/mL) in experiment [5]; 1 µM (≈ 3.09 µg/mL) against Escherichia coli UB1005; 2 µM (≈ 6.17 µg/mL) in [6]; 16 µM (≈ 49.4 µg/mL) against Streptococcus agalactiae; 32 µM and 64 µM in experiment [7]. The MIC in the experiment with Staphylococcus aureus is 16 µM (≈ 49.4 µg/mL); in experiment [8], 8 µM (≈ 24.7 µg/mL); in experiment [9] it was 16 µM (≈ 49.4 µg/mL); in experiment [10], 32 µM (≈ 98.8 µg/mL); in [11] it was 16 µM (≈ 49.4 µg/mL).

Take `CC[C@H](C)[C@H](NC(=O)[C@H](C)NC(=O)[C@@H](NC(=O)[C@@H](NC(=O)CN)C(C)C)C(C)C)C(=O)N[C@@H](CC(C)C)C(=O)N[C@@H](CCCCN)C(=O)NCC(=O)N[C@@H](C)C(=O)N[C@@H](C)C(=O)N[C@@H](CCCCN)C(=O)N[C@@H](CC(=O)O)C(=O)N[C@H](C(=O)N[C@@H](C)C(=O)NCC(=O)N[C@@H](Cc1cnc[nH]1)C(=O)N[C@@H](CC(C)C)C(=O)N[C@@H](C)C(=O)N[C@@H](CO)C(=O)N[C@@H](CCCCN)C(=O)N[C@H](C(=O)N[C@@H](CCSC)C(=O)N[C@@H](CC(N)=O)C(=O)N[C@@H](CCCCN)C(=O)N[C@@H](CC(C)C)C(N)=O)C(C)C)[C@@H](C)CC` [GVVAILKGAAKDIAGHLASKVMNKL]: the MIC in experiment [12] was 50 µM (≈ 125 µg/mL); in experiment [13], greater than 100 µM; in experiment [14], no less than 100 µM; in experiment [7], greater than 100 µM; in [15] it was no less than 100 µM; in experiment [16], 50 µM (≈ 125 µg/mL).

As for `CC(C)[C@H](N)C(=O)N[C@@H](CS)C(=O)N[C@@H](CCCN=C(N)N)C(=O)N[C@@H](CCCCN)C(=O)N1CCC[C@H]1C(=O)N[C@H](C(=O)N[C@H](C(=O)N[C@@H](CS)C(=O)N[C@@H](CCCN=C(N)N)C(=O)N[C@@H](CCCCN)C(=O)N1CCC[C@H]1C(=O)N[C@H](C(=O)N[C@H](C(=O)N[C@@H](CS)C(=O)N[C@@H](CCCN=C(N)N)C(=O)N[C@@H](CCCCN)C(=O)N1CCC[C@H]1C(=O)N[C@H](C(N)=O)C(C)C)C(C)C)C(C)C)C(C)C)C(C)C` [VCRKPVVCRKPVVCRKPV], the minimum inhibitory concentration (MIC) in experiment [4] was no less than 64 µM; in experiment [5] it was 8 µM (≈ 16.5 µg/mL); in experiment [12] it was 8 µM (≈ 16.5 µg/mL); against Escherichia coli UB1005, 16 µM (≈ 33.1 µg/mL); in [6], 16 µM (≈ 33.1 µg/mL); against Streptococcus agalactiae it was no less than 64 µM. The minimal inhibitory concentration (MIC) in [7] is greater than 64 µM; in the experiment with Staphylococcus aureus it was greater than 64 µM; in experiment [8], no less than 64 µM; in [9] it was greater than 64 µM; in experiment [10] it was greater than 64 µM; in experiment [11], greater than 64 µM.
